From patent US11034735B2, “Hybrid peptide, set of hybrid peptides, composition, uses of the hybrid peptide, method for inducing an immune response and kits” (priority 2017, dated 2021)

Tests used:
[1] = test system: calf serum; experiment: Dot-ELISA, synthetic peptides with serum of calf immunized with peptide pool; assay type: in vivo; set-up: key to Peptide Reactivity, Calf serum inoculated with pool: — = Did not react; X = Reacted; details: for Peptide Reactivity, Calf serum inoculated with pool: Dot-ELISA, peptide as antigen, calf inoculated with pool SEQ ID NO: 20, 21, 23, 25, 26; for Dot-ELISA reaction of calf serum inoculated with the peptide pool with the antigen: label = antigen on disc
Source text: (§1) The immunogenicity of the synthetic peptides was verified by immunizing a previously tested calf with negative results for Anaplasma marginale, Babesia bovis and Babesia bigemina by serology and PCR. For inoculations, a peptide pool (SEQ ID NO: 20, SEQ ID NO: 21, SEQ ID NO: 23, SEQ ID NO: 25 and SEQ ID NO: 26) was emulsified in Freund's complete adjuvant (Sigma) and, inoculated intramuscularly in the quadriceps. Two further immunizations, on the 14th and 28th day after inoculation, were performed using incomplete Freund's adjuvant (Sigma). Each inoculation was done using 100 μg/mL of each peptide. Blood samples were collected by jugular puncture on the 10th day after the last immunization and the sera obtained were stored at −20° C. until evaluated by Dot-ELISA and Western-blotting assays.
(§2) Synthetic peptides were used as antigen in the Dot-ELISA technique to verify their ability to react with specific antibodies present in the serum of BALB/c mice, as well as in calf serum, all immunized. The technique was performed as described by Machado et al. (1994), with minor modifications. Briefly, small nitrocellulose discs were cut using a paper punch and each disc arranged in a flat bottom 24-well culture plate well. 4 μg/mL of each synthetic peptide alone, as well as the peptide pool, were deposited on each disc. The discs were dried at room temperature and then blocked for 12 hours at room temperature with […] TBS buffer (0.1 M Tris, 0.1 M NaCl and 0.5% Tween 20; TBS-Tween 20), plus 5% skim milk powder. Test sera were diluted 1:25 (mice and calf) in TBS-Tween 20 containing 5% skim milk powder and incubated for 120 minutes at room temperature and under constant stirring. Then the discs were subjected to two washes with TBS-Tween 20 plus 5% skim milk powder and one wash with TBS-Tween 20 (5 min interval between each wash). To each mouse serum disc was added the alkaline phosphate-coupled anti-mouse conjugate (anti-mouse IgG goat IgG, Sigma A-3562) diluted 1:30,000 in TBS-Tween 20 plus 5% of skim milk powder. To calf serum-containing discs, it was added alkaline phosphate-coupled anti-bovine conjugate (anti-cattle IgG rabbit IgG, Sigma A-0705) diluted 1:30,000 in TBS-Tween 20, plus 5% skim milk powder. After one hour incubation with the appropriate conjugates, washes were followed as in the previous step.

[2] = test system: calf serum; experiment: Western blotting, synthetic peptides with calf serum; assay type: in vivo; details: label = antigen on blot
Source text: as §1
(§3) Samples of synthetic peptides were analyzed by Western blotting. To this end, initially, the samples were submitted to polyacrylamide gel electrophoresis under denaturing conditions, according to the technique recommended by Laemmli (1970). Based on the sample volume 2× concentrated sample buffer (250 mM Tris-HCl pH 6.8, 40% glycerol, 8% SDS, 20% β-mercaptoethanol and 0.008% bromophenol blue) was added. The samples were homogenized, incubated for 5 minutes at 100° C. and applied to the gel. The separation gel was prepared at a concentration of 12% polyacrylamide in buffer (1.875 M Tris, pH 8.8 and 1% SDS) and 5% polyacrylamide for buffer packaging gel (1.875 M Tris, pH 6.8 and 0.5% SDS). Electrophoresis was performed in Tris-Glycine Running Buffer (50 mM Tris, pH 8.6, 1.92 M Glycine and 1% SDS) at 100 V for up to 3 hours and 30 minutes at 0° C. in the Mini-Protean II system (Bio-Rad).
Synthetic peptides processed on the polyacrylamide gel (SDS-PAGE) were transferred to the nitrocellulose membrane for analysis by Wester blot (TOWBIN et al., 1979). The nitrocellulose membrane (Merck) was previously incubated in ice cold transfer buffer (0.58% Tris Base pH 8.3, 20% methanol and 0.29% glycine). For this, the membrane was placed in the “Mini Trans-Blot” (Bio-Rad) electrotransfer system containing the same buffer and the transfer was performed at 100 V for 90 minutes. The membrane was incubated in TBS-Tween (10 mM Tris-HCl pH 7.5; 150 mM NaCl, 0.05% Tween-20) plus 5% skim milk powder for 12 hours at 4° C. under low agitation, for saturation of non-specific binding sites. The membrane was then incubated with each serum from each mouse alone or incubated with calf serum for 2 hours at room temperature under slow stirring. It was then subjected to three consecutive 10-minute washes with the same solution under slow agitation. […]

[3] = test system: serum of BALB/c mice; experiment: Dot-ELISA, synthetic peptides with serum of immunized BALB/c mice; assay type: in vivo; set-up: key to Peptide Reactivity, Mice serum inoculated with isolated peptides 1 / Peptide Reactivity, Mice serum inoculated with isolated peptides 2 / Peptide Reactivity, Mice serum inoculated with isolated peptides 3 / Peptide Reactivity, Mice serum inoculated with pool / Peptide Reactivity, Mice serum inoculated with Saline (Negative Control) / Reaction with pool of peptides, Mouse 1 serum / Reaction with pool of peptides, Mouse 2 serum / Reaction with pool of peptides, Mouse 3 serum: — = Did not react; X = Reacted; details: for Peptide Reactivity, Mice serum inoculated with pool / Peptide Reactivity, Mice serum inoculated with isolated peptides 1 / Peptide Reactivity, Mice serum inoculated with isolated peptides 2 / Peptide Reactivity, Mice serum inoculated with isolated peptides 3 / Peptide Reactivity, Mice serum inoculated with Saline (Negative Control) / Reaction with pool of peptides, Mouse 1 serum / Reaction with pool of peptides, Mouse 2 serum / Reaction with pool of peptides, Mouse 3 serum: Dot-ELISA; for Peptide Reactivity, Mice serum inoculated with pool / Peptide Reactivity, Mice serum inoculated with isolated peptides 1 / Peptide Reactivity, Mice serum inoculated with isolated peptides 2 / Peptide Reactivity, Mice serum inoculated with isolated peptides 3 / Peptide Reactivity, Mice serum inoculated with Saline (Negative Control) / Dot-ELISA reaction of sera from mice inoculated with hybrid peptides alone / Dot-ELISA reaction of mouse sera inoculated with the peptide pool: peptide as antigen; for Peptide Reactivity, Mice serum inoculated with pool: mice inoculated with pool of all 8 hybrid peptides; for Peptide Reactivity, Mice serum inoculated with isolated peptides 1: serum of mouse 1 inoculated with the same isolated peptide; for Peptide Reactivity, Mice serum inoculated with isolated peptides 1 / Peptide Reactivity, Mice serum inoculated with isolated peptides 2 / Peptide Reactivity, Mice serum inoculated with isolated peptides 3: serum 1:25; for Peptide Reactivity, Mice serum inoculated with isolated peptides 2: serum of mouse 2 inoculated with the same isolated peptide; for Peptide Reactivity, Mice serum inoculated with isolated peptides 3: serum of mouse 3 inoculated with the same isolated peptide; for Peptide Reactivity, Mice serum inoculated with Saline (Negative Control): serum of saline-inoculated mice; for Reaction with pool of peptides, Mouse 1 serum / Reaction with pool of peptides, Mouse 2 serum / Reaction with pool of peptides, Mouse 3 serum: pool of peptides as antigen; for Reaction with pool of peptides, Mouse 1 serum: serum of mouse 1 inoculated with the labelled peptide; for Reaction with pool of peptides, Mouse 2 serum: serum of mouse 2 inoculated with the labelled peptide; for Reaction with pool of peptides, Mouse 3 serum: serum of mouse 3 inoculated with the labelled peptide; for Dot-ELISA reaction of mouse sera inoculated with the peptide pool: pool of all 8 hybrid peptides
Protocol: (§4) The immunogenicity of each peptide was checked immunizing BALB/c mice, approximately six weeks old, with […] of protein (Machado et al., 1994). The mice were divided into groups of three animals each. The groups were: P28, P41, P42, P44, P50, P51, P53, P54, Pool (mice inoculated with a pool of peptides, in the case with all 8 hybrid peptides) and negative control group. For inoculations, the peptides were emulsified in Freund's complete adjuvant (Sigma) and inoculated intramuscularly in the quadriceps. Two further immunizations, on the 14th and 28th day after inoculation, were performed using incomplete Freund's adjuvant (Sigma). Each inoculation was carried out using 10 μg/mL of each peptide. Negative control mice were inoculated with sterile saline in place of the peptides and also emulsified in adjuvant. Blood samples were collected by intracardiac puncture on the 10th day after the last immunization and the sera obtained were stored at −20° C. until evaluated by Dot-ELISA and Western-blotting assays.
as §2

[4] = test system: bovine serum serologically positive / negative / vaccinated for A. marginale; experiment: Dot-ELISA, synthetic peptides with sera of cattle serologically positive, negative or vaccinated for A. marginale; assay type: binding; details: peptide as antigen
Protocol: as §2

[5] = test system: mouse serum; experiment: Western blotting, synthetic peptides with serum of inoculated mice; details: in vivo
Protocol: as §4, §3
Synthetic peptides processed on the polyacrylamide gel (SDS-PAGE) were transferred to the nitrocellulose membrane for analysis by Wester blot (TOWBIN et al., 1979). The nitrocellulose membrane (Merck) was previously incubated in ice cold transfer buffer (0.58% Tris Base pH 8.3, 20% methanol and 0.29% glycine). For this, the membrane was placed in the “Mini Trans-Blot” (Bio-Rad) electrotransfer system containing the same buffer and the transfer was performed at 100 V for 90 minutes. The membrane was incubated in TBS-Tween (10 mM Tris-HCl pH 7.5; 150 mM NaCl, 0.05% Tween-20) plus 5% skim milk powder for 12 hours at 4° C. under low agitation, for saturation of non-specific binding sites. The membrane was then incubated with each serum from each mouse alone or incubated with calf serum for 2 hours at room temperature under slow stirring. […]

| Sequence | Peptide Reactivity, Calf serum inoculated with pool [1] | Dot-ELISA reaction of calf serum inoculated with the peptide pool with the antigen [1] | Western blotting reactivity of calf serum inoculated with the peptide pool [2] | Peptide Reactivity, Mice serum inoculated with pool [3] | Peptide Reactivity, Mice serum inoculated with isolated peptides 1 [3] | Peptide Reactivity, Mice serum inoculated with isolated peptides 2 [3] | Peptide Reactivity, Mice serum inoculated with isolated peptides 3 [3] | Peptide Reactivity, Mice serum inoculated with Saline (Negative Control) [3] | Reaction with pool of peptides, Mouse 1 serum [3] | Reaction with pool of peptides, Mouse 2 serum [3] | Reaction with pool of peptides, Mouse 3 serum [3] | Dot-ELISA reaction of sera from mice inoculated with hybrid peptides alone [3] | Reaction of sera from serologically positive cattle for A. marginale with synthetic peptide [4] | Reaction of sera from vaccinated cattle for A. marginale with synthetic peptide [4] | Western blotting reaction of serum of mice inoculated with synthetic peptide [5] | Dot-ELISA reaction of mouse sera inoculated with the peptide pool [3] |
| --- | --- | --- | --- | --- | --- | --- | --- | --- | --- | --- | --- | --- | --- | --- | --- | --- |
| GASTDDAAAAAKIVAMAYGRGGGGGASSVDALTATKLVAAALGH (Synthetic hybrid peptide) [P44] | X | reacted | showed reactivity | — | X | X | X | — | — | — | — | reacted | reacted | reacted | reacted |  |
| LAESTEGNLEEVWILGKGGGGFSESMKALIKKYVDTSKPTIYVDQGTVMKV (Synthetic hybrid peptide) [P51] | X | reacted | showed reactivity | X | — | X | X | — | — | X | — | reacted |  |  |  | reacted |
| SECVSLQPTDSSSASGQQQEGGGGLQGHMIDAVLETAINSDIPGVLRAIVSRDV (Synthetic hybrid peptide) [P54] | — |  |  | X | X | X | X | — | — | X | — | reacted | reacted |  | reacted | reacted |
| SKVASVEYILAARGGGGQVDRLANALGK (Synthetic hybrid peptide) [P28] | — |  |  | — | — | — | — | — | — | X | — |  | reacted | reacted |  | reacted |
| SSVSSQSDQASTSSQLGGGGAMGDSVHWKVKPVDNKLFIMP (Synthetic hybrid peptide) [P41] | X | reacted | showed reactivity | — | — | — | — | — | — | — | — |  |  |  |  |  |
